Data taken from patent US10493060B2, “Spirocyclic compounds” (ZENO ROYALTIES & MILESTONES, LLC, priority 2015, dated 2019).

Experiments:
[1] = test system: Colo-205 (colon cancer) cells; test: Proliferation assay (CellTiter-Glo), Colo-205; type: cell-based; conditions: Homo sapiens, COLO 205, 72 h, Colo205 cells, 3 days
Method: (§1) A375 (melanoma), Colo-205 (colon cancer), Miapaca (pancreatic), HPAFII (pancreatic), sNF02.0 (neurofibromatosis type 1), sNF96.2 (neurofibromatosis type 1) and 8505 (Thyroid) cells were grown and maintained in RPMI-1640 medium containing 100 U/mL penicillin-streptomycin and 10% fetal bovine serum. Cells were in growth medium in 96-well opaque-walled clear bottom plates and incubated the in the CO2 incubator overnight before treatment. Cells were treated with compounds diluted in DMSO and a 10 point 3-fold serial dilutions were done. Plates were placed in 37° C., 5% CO2 for to incubate for 3 days. Before they were developed by adding 100 μL of CellTiter-Glo reagent (Promega) to the assay plate, plates were shaken briefly for 2 mins and allowed to incubate at rt for 10 mins. The bottom of the plates was pasted with white back seal and luminescence was recorded with Flexstation3 with setting of luminescence, integration time 500 ms.

[2] = molecular target: Activated ERK2 (Homo sapiens (Human), UniProt P28482); test: Active ERK2 kinase assay (Mobility Shift Assay); type: biochemical
Chain of Activated ERK2 (P28482 whole entry): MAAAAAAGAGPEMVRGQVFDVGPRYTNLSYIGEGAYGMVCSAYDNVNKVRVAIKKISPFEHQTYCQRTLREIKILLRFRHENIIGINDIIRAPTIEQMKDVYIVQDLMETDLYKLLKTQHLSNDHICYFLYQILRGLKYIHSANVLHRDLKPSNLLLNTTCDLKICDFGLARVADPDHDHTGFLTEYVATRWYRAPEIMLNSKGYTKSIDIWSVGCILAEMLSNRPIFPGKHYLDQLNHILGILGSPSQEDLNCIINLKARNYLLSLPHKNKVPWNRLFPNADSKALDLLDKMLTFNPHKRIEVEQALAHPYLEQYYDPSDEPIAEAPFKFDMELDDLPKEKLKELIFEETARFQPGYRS
Method: (§2) Activated ERK1 and ERK2 activity was determined in a Mobility Shift Assay (MSA) format as follows: Compound and kinase solution were prepared with assay buffer (20 mM HEPES, 0.01% Triton X-100, 2 mM DTT, pH7.5) and mixed and incubated in for 30 mins at rt. ERK1 & ERK2 were then activated by the addition of Fl-Substrate, ATP and metal solution and incubated for 1 h at rt. After 1 h, the reaction was terminated by the addition of […] of Termination Buffer (QuickScout Screening Assist MSA; Carna Biosciences) to the well. The reaction mixture was applied to LabChip™ system (PerkinElmer), and the product and substrate peptide peaks were separated, analyzed and quantitated. The kinase reaction is evaluated by the product ratio calculated from peak heights of product (P) and substrate (S) peptides (P/(P+S)).

[3] = molecular target: Activated ERK1 (Homo sapiens (Human), UniProt P27361); test: Active ERK1 kinase assay (Mobility Shift Assay); type: biochemical
Chain of Activated ERK1 (P27361 whole entry): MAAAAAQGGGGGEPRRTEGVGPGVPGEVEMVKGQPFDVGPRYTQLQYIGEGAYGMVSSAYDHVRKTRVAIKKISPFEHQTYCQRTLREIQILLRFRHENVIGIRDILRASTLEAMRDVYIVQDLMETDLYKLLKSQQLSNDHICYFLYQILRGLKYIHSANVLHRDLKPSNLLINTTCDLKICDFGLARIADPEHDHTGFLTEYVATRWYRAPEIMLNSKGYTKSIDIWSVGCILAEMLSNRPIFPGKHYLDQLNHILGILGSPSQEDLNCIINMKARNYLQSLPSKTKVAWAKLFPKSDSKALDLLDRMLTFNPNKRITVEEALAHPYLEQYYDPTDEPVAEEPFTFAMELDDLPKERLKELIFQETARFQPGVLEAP
Method: as §2

[4] = test system: A375 (melanoma) cells; test: Proliferation assay (CellTiter-Glo), A375; type: cell-based; conditions: Homo sapiens, A-375, 72 h, 3 days
Method: as §1

[5] = test system: Mia Paca-2 (pancreatic) cells; test: Proliferation assay (CellTiter-Glo), Mia Paca-2; type: cell-based; conditions: Homo sapiens, 72 h, Mia Paca-2 cells, 3 days
Method: as §1

[6] = test system: 8505C (Thyroid) cells; test: Proliferation assay (CellTiter-Glo), 8505C; type: cell-based; conditions: Homo sapiens, 72 h, 8505C cells, 3 days
Method: as §1

[7] = test system: sNF02.2 (neurofibromatosis type 1) cells; test: Proliferation assay (CellTiter-Glo), sNF02.2; type: cell-based; conditions: 72 h, sNF02.2 cells, 3 days
Method: as §1

[8] = test system: sNF96.2 (neurofibromatosis type 1) cells; test: Proliferation assay (CellTiter-Glo), sNF96.2; type: cell-based; conditions: 72 h, sNF96.2 cells, 3 days
Method: as §1

[9] = test system: HPAFII (pancreatic) cells; test: Proliferation assay (CellTiter-Glo), HPAFII; type: cell-based; conditions: Homo sapiens, HPAF-II, 72 h, 3 days
Method: as §1

| Compound | IC50 [1] [nM] | IC50 [2] [nM] | IC50 [3] [nM] | IC50 [4] [nM] | IC50 [5] [nM] | IC50 [6] [nM] | IC50 [7] [nM] | IC50 [8] [nM] | IC50 [9] [nM] |
| --- | --- | --- | --- | --- | --- | --- | --- | --- | --- |
| Cc1nnc(-c2ccc(C3=CCN(C(=O)CN4CC[C@]5(CCN(c6ccc7[nH]nc(-c8ccc(OC(C)C)nc8)c7c6)C5=O)C4)CC3)cc2)o1 [Example 17, (S)-2-(3-(6-Isopropoxypyridin-3-yl)-1H-indazol-5-yl)-7-(2-(4-(4-(5-methyl-1,3,4-oxadiazol-2-yl)phenyl)-3,6-dihydropyridin-1(2H)-yl)-2-oxoethyl)-2,7-diazaspiro[4.4]nonan-1-one] | ≤ 500 | ≤ 50 | ≤ 50 | ≤ 500 |  |  |  |  |  |
| Cn1cnc(-c2ccc(C3=CCN(C(=O)CN4CC[C@]5(CCN(c6ccc7[nH]nc(C8CCNC(C(F)(F)F)C8)c7c6)C5=O)C4)CC3)cc2)n1 (stereo partly drawn) [Example 12, (5S)-7-(2-(4-(4-(1-Methyl-1H-1,2,4-triazol-3-yl)phenyl)-3,6-dihydropyridin-1(2H)-yl)-2-oxoethyl)-2-(3-(2-(trifluoromethyl)piperidin-4-yl)-1H-indazol-5-yl)-2,7-diazaspiro[4.4]nonan-1-one] | ≤ 500 | ≤ 50 | ≤ 50 | 500 to 1000 |  |  |  |  |  |
| CC(C)Oc1cc(-c2n[nH]c3ccc(N4CC[C@]5(CCN(CC(=O)N6CC=C(c7ccc(-c8ncn(C)n8)cc7)CC6)C5)C4=O)cc23)ccn1 [Example 30, (S)-2-(3-(2-Isopropoxypyridin-4-yl)-1H-indazol-5-yl)-7-(2-(4-(4-(1-methyl-1H-1,2,4-triazol-3-yl)phenyl)-3,6-dihydropyridin-1(2H)-yl)-2-oxoethyl)-2,7-diazaspiro[4.4]nonan-1-one] |  | ≤ 50 | ≤ 50 | ≤ 500 |  |  |  |  |  |
| Cn1cnc(-c2ccc(C3=CCN(C(=O)CN4CC[C@]5(CCN(c6ccc7[nH]nc(-c8ccc(F)cc8)c7c6)C5=O)C4)CC3)cc2)n1 [Example 29, (S)-2-(3-(4-Fluorophenyl)-1H-indazol-5-yl)-7-(2-(4-(4-(1-methyl-1H-1,2,4-triazol-3-yl)phenyl)-3,6-dihydropyridin-1(2H)-yl)-2-oxoethyl)-2,7-diazaspiro[4.4]nonan-1-one] |  | ≤ 50 | ≤ 50 | ≤ 500 | ≤ 500 | 500 to 1000 | ≤ 500 | ≤ 500 | ≤ 500 |
| Cc1ccc(-c2n[nH]c3ccc(N4CCC5(CCN(CC(=O)N6CC=C(c7ccc(-c8ncn(C)n8)cc7)CC6)C5)C4=O)cc23)cn1 (stereo not drawn) [Example 7, 7-(2-(4-(4-(1-Methyl-1H-1,2,4-triazol-3-yl)phenyl)-3,6-dihydropyridin-1(2H)-yl)-2-oxoethyl)-2-(3-(6-methylpyridin-3-yl)-1H-indazol-5-yl)-2,7-diazaspiro[4.4]nonan-1-one] | ≤ 500 | ≤ 50 | ≤ 50 | ≤ 500 |  |  |  |  |  |
| CC(C)Oc1ccc(-c2n[nH]c3ccc(N4CC[C@]5(CCN(CC(=O)N6CC=C(c7ccc(-c8cn(C)nn8)cc7)CC6)C5)C4=O)cc23)cn1 [Example 15, (S)-2-(3-(6-isopropoxypyridin-3-yl)-1H-indazol-5-yl)-7-(2-(4-(4-(1-methyl-1H-1,2,3-triazol-4-yl)phenyl)-3,6-dihydropyridin-1 (2H)-yl)-2-oxoethyl)-2,7-diazaspiro[4.4]nonan-1-one] | ≤ 500 | ≤ 50 | ≤ 50 | ≤ 500 |  |  |  |  |  |
| CC(C)Oc1ccc(-c2n[nH]c3ccc(N4CC[C@]5(CCN(CC(=O)N6CC=C(c7ccc(-c8ncccn8)cn7)CC6)C5)C4=O)cc23)cn1 [Example 25, (S)-2-(3-(6-Isopropoxypyridin-3-yl)-1H-indazol-5-yl)-7-(2-oxo-2-(5-(pyrimidin-2-yl)-3′,6′-dihydro-[2,4′-bipyridin]-1′(2′H)-yl)ethyl)-2,7-diazaspiro[4.4]nonan-1-one] |  | 50 to 250 | ≥ 250 | ≥ 1000 |  |  |  |  |  |
| Cn1cnc(-c2ccc(C3=CCN(C(=O)CN4CC[C@]5(CCN(c6ccc7[nH]nc(-c8ccnc(C9(C(F)(F)F)CC9)c8)c7c6)C5=O)C4)CC3)cc2)n1 [Example 38, (S)-7-(2-(4-(4-(1-Methyl-1H-1,2,4-triazol-3-yl)phenyl)-3,6-dihydropyridin-1 (2H)-yl)-2-oxoethyl)-2-(3-(2-(1-(trifluoromethyl)cyclopropyl)pyridin-4-yl)-1H-indazol-5-yl)-2,7-diazaspiro[4.4]nonan-1-one] |  | ≤ 50 |  | ≤ 500 | ≤ 500 | ≥ 1000 | ≥ 1000 | 500 to 1000 | ≤ 500 |
| CC(C)Oc1ccc(-c2n[nH]c3ccc(N4CC[C@]5(CCN(CC(=O)N6CC=C(c7ccc(-c8ncc(F)cn8)cc7)CC6)C5)C4=O)cc23)cn1 [Example 23, (S)-7-(2-(4-(4-(5-Fluoropyrimidin-2-yl)phenyl)-3,6-dihydropyridin-1(2H)-yl)-2-oxoethyl)-2-(3-(6-isopropoxypyridin-3-yl)-1H-indazol-5-yl)-2,7-diazaspiro[4.4]nonan-1-one] |  | ≤ 50 | ≤ 50 | 500 to 1000 |  |  |  |  |  |
| O=C(Nc1ccc2[nH]nc(-c3ccncc3)c2c1)[C@@H]1CCN(CC(=O)N2CCN(c3ccc(-c4ncccn4)cc3)CC2)C1 [SCH772984] | ≤ 500 |  | ≤ 50 | ≤ 500 | ≤ 500 | 500 to 1000 | ≤ 500 | 500 to 1000 | ≤ 500 |
| CC(C)Oc1ccc(-c2n[nH]c3ccc(N4CC[C@]5(CCN(CC(=O)N6CCC(F)(c7ccc(-c8ncn(C)n8)cc7)CC6)C5)C4=O)cc23)cn1 [Example 27] |  | ≥ 250 | ≥ 250 | ≥ 1000 |  |  |  |  |  |
| CC(C)Oc1ccc(-c2n[nH]c3ccc(N4CC[C@]5(CCN(CC(=O)N6CC=C(c7ccc(-c8ncccn8)cc7)CC6)C5)C4=O)cc23)cn1 [Example 22, (S)-2-(3-(6-Isopropoxypyridin-3-yl)-1H-indazol-5-yl)-7-(2-oxo-2-(4-(4-(pyrimidin-2-yl)phenyl)-3,6-dihydropyridin-1(2H)-yl)ethyl)-2,7-diazaspiro[4.4]nonan-1-one] |  | ≤ 50 | ≤ 50 | ≤ 500 |  |  |  |  |  |
| Cn1nccc1Nc1nccc(-c2ccn([C@H](CO)c3ccc(Cl)c(F)c3)c(=O)c2)n1 [GDC-0994] | ≤ 500 |  |  | 500 to 1000 |  |  |  |  |  |
| CC(C)Oc1ccc(-c2n[nH]c3ccc(N4CC[C@]5(CCN(CC(=O)N6CCC(C78CC(c9ncn(C)n9)(C7)C8)CC6)C5)C4=O)cc23)cn1 [Example 24, (S)-2-(3-(6-Isopropoxypyridin-3-yl)-1H-indazol-5-yl)-7-(2-(4-(3-(1-methyl-1H-1,2,4-triazol-3-yl)bicyclo[1.1.1]pentan-1-yl)piperidin-1-yl)-2-oxoethyl)-2,7-diazaspiro[4.4]nonan-1-one] |  | ≤ 50 | 50 to 250 | ≥ 1000 |  |  |  |  |  |
| CC(C)Nc1cc(-c2c[nH]c(C(=O)N[C@H](CO)c3cccc(Cl)c3)c2)c(Cl)cn1 [BVD-523] | ≤ 500 |  | ≤ 50 | ≤ 500 | ≤ 500 | ≥ 1000 | ≥ 1000 | 500 to 1000 | ≤ 500 |
| Cn1cnc(-c2ccc(C3=CCN(C(=O)CN4CC[C@]5(CCN(c6ccc7[nH]nc(-c8ccnc(C(F)(F)F)c8)c7c6)C5=O)C4)CC3)cc2)n1 [Example 20, (S)-7-(2-(4-(4-(1-Methyl-1H-1,2,4-triazol-3-yl)phenyl)-3,6-dihydropyridin-1 (2H)-yl)-2-oxoethyl)-2-(3-(2-(trifluoromethyl)pyridin-4-yl)-1H-indazol-5-yl)-2,7-diazaspiro[4.4]nonan-1-one] | ≤ 500 | ≤ 50 | ≤ 50 | ≤ 500 |  |  |  |  |  |
| CCNc1nnc(-c2ccc(C3=CCN(C(=O)CN4CC[C@]5(CCN(c6ccc7[nH]nc(-c8ccc(OC(C)C)nc8)c7c6)C5=O)C4)CC3)cc2)o1 [Example 18, (S)-7-(2-(4-(4-(5-(Ethylamino)-1,3,4-oxadiazol-2-yl)phenyl)-3,6-dihydropyridin-1(2H)-yl)-2-oxoethyl)-2-(3-(6-isopropoxypyridin-3-yl)-1H-indazol-5-yl)-2,7-diazaspiro[4.4]nonan-1-one] | ≤ 500 | ≤ 50 | ≤ 50 | ≤ 500 |  |  |  |  |  |
